Test systems include HL-60(TB) leukemia; SF-268 CNS; HCT-15 colon; HCC-2998 colon; NCI-H460 lung; SN12C renal; SK-MEL-5 melanoma; MALME-3M melanoma; HOP-92 NSCLC; SR leukemia.
Common to all, as to assay: NCI anticancer screen, dose series, 48 h

Values joined by “and” are separate entries in the source; they are usually repeats but may differ in a detail not shown here. Identical values can stand only once.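 The compound was tested at five concentrations on cells cultured in 96-well plates, with a 48-hour exposure period. The concentration for 50% growth inhibition is given as GI50. TGI: total growth inhibition.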

In the case of `Cc1ccc(S(=O)(=O)Nc2ccc(-c3cc(-c4cccc(F)c4)c(C#N)c(N)n3)cc2)cc1`, the GI50 in the assay on HL-60(TB) leukemia was 1.87 µM; with SF-268 CNS, 2.97 µM; in the assay on HCT-15 colon, 1.88 µM; with HCC-2998 colon it was 1.72 µM; in the assay with NCI-H460 lung, 3.53 µM; with SN12C renal it was 2.2 µM. In addition, the GI50 was 1.77 µM with SK-MEL-5 melanoma, 1.61 µM in the assay on MALME-3M melanoma, 1.06 µM in the assay with HOP-92 NSCLC and 2.7 µM in the assay on SR leukemia. Further, the TGI is 6.07 µM with HL-60(TB) leukemia; 12.8 µM in the assay with SF-268 CNS; 4.86 µM in the assay with HCT-15 colon; 3.28 µM with HCC-2998 colon; 12.6 µM in the assay on NCI-H460 lung; 7.11 µM with SN12C renal. Further, the TGI in the assay on SK-MEL-5 melanoma was determined as 3.23 µM; in the assay with MALME-3M melanoma, 3.25 µM; in the assay on HOP-92 NSCLC, 2.37 µM; with SR leukemia, 10.5 µM.
Turning to `COc1cccc2c1C(=O)c1c(O)c3c(c(O)c1C2=O)CC(O)(C(=O)CO)CC3OC1CC(N)C(O)C(C)O1` (centres undefined), the GI50 in the assay on HL-60(TB) leukemia is 2.84 µg/mL and 26.4 µg/mL; in the assay on SF-268 CNS, 7.5 µg/mL; in the assay on HCT-15 colon, 75 µg/mL and > 150 µg/mL; with HCC-2998 colon it was 37.2 µg/mL and 26 µg/mL; in the assay on NCI-H460 lung, 0.709 µg/mL and 0.986 µg/mL; in the assay on SN12C renal it was 14.4 µg/mL and 13 µg/mL. In addition, the GI50 with SK-MEL-5 melanoma was 4.76 µg/mL and 15.7 µg/mL; in the assay on MALME-3M melanoma, 10 µg/mL and 81.4 µg/mL; with HOP-92 NSCLC, 23.9 µg/mL and 7.86 µg/mL; in the assay with SR leukemia it was 0.465 µg/mL and 1.18 µg/mL. For the same compound, the TGI in the assay with HL-60(TB) leukemia is 75 µg/mL and > 150 µg/mL; with SF-268 CNS, 75 µg/mL; in the assay with HCT-15 colon it was 75 µg/mL and > 150 µg/mL; in the assay with HCC-2998 colon it was 75 µg/mL and 122 µg/mL; in the assay with NCI-H460 lung it was 75 µg/mL and 27.3 µg/mL; in the assay on SN12C renal, 75 µg/mL and > 150 µg/mL. Moreover, the TGI in the assay with SK-MEL-5 melanoma was 23.4 µg/mL and 44.8 µg/mL; in the assay on MALME-3M melanoma, 75 µg/mL and > 150 µg/mL; in the assay with HOP-92 NSCLC, 75 µg/mL and 127 µg/mL; in the assay on SR leukemia, 7.2 µg/mL and 6.76 µg/mL.
Consider `CN(C)CCNC(=O)NC[C@H]1CC[C@@H]2[C@H](O1)c1cc(C(F)(F)F)ccc1N[C@H]2c1ccccc1`, for which the GI50 was 0.154 µM in the assay on HL-60(TB) leukemia; 0.589 µM in the assay with SF-268 CNS; 1.02 µM with HCT-15 colon; 0.275 µM in the assay on HCC-2998 colon; 0.14 µM with NCI-H460 lung; 0.455 µM in the assay with SN12C renal. In addition, the GI50 in the assay with SK-MEL-5 melanoma was 0.0999 µM; in the assay on MALME-3M melanoma it was 0.582 µM; with HOP-92 NSCLC, 1.25 µM; with SR leukemia, 0.0411 µM. Besides, the TGI in the assay on HL-60(TB) leukemia was 0.672 µM; in the assay on SF-268 CNS, 39.6 µM; in the assay with HCT-15 colon, 16.5 µM; in the assay with HCC-2998 colon it was 18.6 µM; in the assay on NCI-H460 lung, 11.8 µM; with SN12C renal, greater than 51.7 µM. For the same compound, the TGI is 15.8 µM in the assay on SK-MEL-5 melanoma, 22.4 µM in the assay with MALME-3M melanoma, 29 µM in the assay with HOP-92 NSCLC and 15.1 µM with SR leukemia.
As for `CN(C)CCOC(=O)Nc1nc2ccc(Sc3ccccc3)cc2[nH]1`, the GI50 is 3.24 µM with HL-60(TB) leukemia; 6.41 µM in the assay with SF-268 CNS; 1.96 µM with HCT-15 colon; 3.31 µM with HCC-2998 colon; 3.69 µM with NCI-H460 lung; 5.23 µM in the assay with SN12C renal. Besides, the GI50 was 3.31 µM with SK-MEL-5 melanoma, 4.93 µM in the assay on MALME-3M melanoma, 1.33 µM in the assay with HOP-92 NSCLC and 0.921 µM in the assay on SR leukemia. In addition, the TGI came to 8.59 µM with HL-60(TB) leukemia; 25.4 µM in the assay on SF-268 CNS; 16.2 µM with HCT-15 colon; 14.1 µM in the assay on HCC-2998 colon; 13.7 µM in the assay on NCI-H460 lung; 27.5 µM in the assay with SN12C renal. In addition, the TGI in the assay with SK-MEL-5 melanoma amounted to 12.5 µM; in the assay with MALME-3M melanoma it was 19.5 µM; in the assay with HOP-92 NSCLC it was 6.73 µM; in the assay on SR leukemia it was 19.4 µM.
On to `COc1cc(/C=C/C(=O)c2c(C)nc3ccccc3c2C)ccc1OCCCN1CCN(C(=O)c2ccco2)CC1`, for which the GI50 was 2.72 µM with HL-60(TB) leukemia; 10.9 µM in the assay with SF-268 CNS; 5.74 µM in the assay on HCT-15 colon; 10.4 µM in the assay with HCC-2998 colon; 8.91 µM in the assay with NCI-H460 lung; 11 µM in the assay with SN12C renal. Also, the GI50 with SK-MEL-5 melanoma is 2.12 µM; with MALME-3M melanoma, 3.43 µM; in the assay on SR leukemia, 2.22 µM. Moreover, the TGI in the assay on HL-60(TB) leukemia was found to be 5.63 µM; in the assay on SF-268 CNS, 25.8 µM; in the assay on HCT-15 colon, 30.9 µM; in the assay on HCC-2998 colon, 22.1 µM; with NCI-H460 lung it was 21.7 µM; in the assay on SN12C renal, 28.7 µM. Also, the TGI in the assay with SK-MEL-5 melanoma was 12.6 µM; in the assay with MALME-3M melanoma, 18.2 µM; with HOP-92 NSCLC, 4.74 µM; with SR leukemia it was 7.47 µM.
As to `O=C1NC(c2cccc(OCc3ccccc3)c2)Nc2ccccc21` (centres undefined), the TGI with HL-60(TB) leukemia is less than 0.0428 µM; with SF-268 CNS, greater than 51 µM; with HCT-15 colon, 0.702 µM; in the assay on HCC-2998 colon it was 0.621 µM; with NCI-H460 lung, 22.9 µM; with SN12C renal it was 30.5 µM. Further, the TGI in the assay with SK-MEL-5 melanoma is 1.87 µM; in the assay on MALME-3M melanoma it was 35 µM; with HOP-92 NSCLC it was greater than 100 µM; in the assay on SR leukemia, 0.47 µM.

The record behind these values is PubChem BioAssay (NCI).
